ChEMBL document CHEMBL5576080, “Oropouche virus - The "Newest" invisible public enemy?” (Bioorg Med Chem, 2024)
pEC50, pIC50: −log10 of the molar value. Activity calls are given as the source filed them. The rule behind the calls is not given here.

Columns and labels:
Oropouche virus [1] = test: Antiviral activity against Oropouche virus infected in Vero cells incubated for 1 hr and measured after 3 days by crystal violet staining based analysis; assay type: functional, organism-based
[2] = Selectivity index, ratio of CC50 for African green monkey Vero cells to EC50 for Oropouche virus infected in Vero cells; assay type: toxicity, cell-based; conditions: read-out: Ratio CC50/EC50
[3] = Cytotoxicity against African green monkey Vero cells assessed as reduction in cell viability measured after 72 hrs by MTT assay; assay type: toxicity, cell-based; conditions: chlorocebus sabaeus
Oropouche virus [4] = test: (§1) Inhibition of Oropouche virus N-terminal His-tagged fusion endonuclease expressed in Escherichia coli Rosetta (DE3) cells using FAM-TCT CTA GCA GTG GCG CC-TAM as DNA substrate measured every 60 secs for 60 mins by fluorescence based analysis
[5] = as §1
[6] = Inhibition of Oropouche virus N-terminal His-tagged fusion endonuclease expressed in Escherichia coli Rosetta (DE3) cells using FAM-TCT CTA GCA GTG GCG CC-TAM as DNA substrate measured every 60 secs for 60 mins by FRET assay

SMILES: Oc1cc(O)c2c(O)c3cc4ccccc4cc3nc2c1
- pEC50 (Oropouche virus [1]): 4.67
- selectivity ratio [2]: 70.8
- CC50 at 72 h [3]: 1.53 mM
- inhibition (Oropouche virus [4]): inactive

SMILES: COc1cc2[nH]c3c(OC)c(OC)ccc3c(=O)c2c(OC)c1OC [CUSCULINE]
- pEC50 (Oropouche virus [1]): 4.48
- selectivity ratio [2]: 49.6
- CC50 at 72 h [3]: 1.64 mM
- pIC50 [5]: 5.85

SMILES: COc1cc(O)c2c(c1)oc(=O)c1c3cc(O)c(O)cc3oc21 [WEDELOLACTONE]
- pEC50 (Oropouche virus [1]): 4.72
- pIC50 [6]: 6.51
- CC50 at 72 h [3]: 0.373 mM
